Values quoted from earlier work in patent US20240274252A1, “Dosage Calculator” (Closed Loop Medicine Ltd., priority 2023, published 2024).
Several values for one entry are separate records, joined by “and”; a condition that tells them apart may be missing. Equal entries are not always repeated. Where two headings read alike, the source gives them in different places. Each block holds one molecule with its values, some of them ahead of it.

Tests used:
[1] = for time to peak levels: immediate release
[2] = patient population
[3] = model input parameter, FIG. 4A
[4] = not given; remark: listed apart in the source
[5] = not given; remark: listed apart in the source

half-life ([1]; elimination after absorption): 12 to 17 h and 12 to 14 h
acyl glucuronides, mean share of parent drug in the plasma ([1]; equally active metabolites): ~10%
time to peak levels ([1]; after food): 3 to 4 h
time to peak levels ([1]; taken without food): approximately 1 hour
PK linearity ([1]; in vivo): linear
mean half-life ([1]; in vivo): 12 h
share of absorbed drug eliminated into urine ([1]; in vivo): 80%
variability in circulating plasma levels ([1]; inter-subject, from prodrug conversion and low GI absorption): up to 50%
remainder of the drug going into the faeces ([1]; oral): ~90%
time of peak absorption ([1]; oral): ~1 h
fraction of the drug absorbed from the GI tract ([1]; oral, after conversion from prodrug dabigatran etexilate): ~5% and 3-7%
increase in availability ([1]; pellets removed from the capsule): 75%
elimination via the kidney, share of total clearance ([1]; primary route of elimination): 80%
total and peak systemic exposure versus dose ([1]; range 50-400 mg twice daily): dose-proportional
delay of the peak by food ([1]; with food, total absorption not affected): ≤ 2 h
range of trough plasma levels ([2]; 110 mg dose): 25 to 160 ng/mL
range of trough plasma levels ([2]; 150 mg dose): 40 to 220 ng/mL
Change in Drug Level Exposure (AUC) (Amiodarone co-administration): 12% increase
Change in Drug Level Exposure (AUC) (CrCl = 30, relative to median CrCl of 69 in RE-LY): 1.8 fold increase
Change in Drug Level Exposure (AUC) (CrCl = 50, relative to median CrCl of 69 in RE-LY): 1.3 fold increase
decrease in Vd (Hb above 14.3 g · dL^−1): 4 %/1 g · dL^−1
Change in Drug Level Exposure (AUC) (PPIs co-administration): ~13% decrease
Change in Drug Level Exposure (AUC) (Verapamil co-administration): 23% increase
Change in Drug Level Exposure (AUC) (covariate Haemoglobin): no effect on AUC
Change in Drug Level Exposure (AUC) (females compared to men): ~9% increase in females compared to men
effect on Cmax (low weight): will increase Cmax
Change in Drug Level Exposure (AUC) (patients with heart failure): ~7% increase in patients with HF
Ka, first order drug absorption rate constant [3]: 0.754
Q, intercompartmental clearance [3]: 35.5
Vc, central compartment volume [3]: 673
Vp, peripheral compartment volume [3]: 345
increase in maximum concentration, Cmax ([4]; with Quinidine): 56%
increase in total absorption ([4]; with Quinidine): 53%
increase in total exposure ([4]; with ketoconazole): ~1.4 fold
increase in total exposure ([4]; with verapamil, depending on when the drug is taken): 2.4 fold
SMILES: [H]/N=C(/N)c1ccc(NCc2nc3cc(C(=O)N(CCC(=O)O)c4ccccn4)ccc3n2C)cc1 [dabigatran]
Change in Drug Level Exposure (AUC) (Age, per year older compared to 72 yr): 0.41% increase per year older compared to 72 yr
Change in Drug Level Exposure (AUC) (South Asians compared to other ethnicities): ~26% increase in South Asians compared to other
Change in activity: chance of bleeding (coadministration of Asprin, clopidogrel): Coadministration will increase chance of bleeding
Change in Drug Level Exposure (AUC) (covariate Weight): Weight had no effect on AUC but increase in distribution

risk of intracranial bleeds compared with warfarin ([5]; RELY): small reduction
SMILES: CCCCCCOC(=O)NC(=N)c1ccc(NCc2nc3cc(C(=O)N(CCC(=O)OCC)c4ccccn4)ccc3n2C)cc1 [Dabigatran etexilate]
comparison with warfarin ([5]; phase III RELY study, patients with nonvalvular AF): superior to warfarin
